#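 Values below derive from 48-hour exposures of cells grown in 96-well plates, with endpoints linearly interpolated between the two concentrations bracketing the appropriate inhibition level. GI50: concentration for 50% inhibition of growth. TGI: concentration producing complete growth inhibition.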
# Tests used:
# Experiment in all cases: DTP human tumour cell line panel, 48 h
# CCRF-CEM leukemia = test system: CCRF-CEM leukemia
# COLO 205 colon = test system: COLO 205 colon
# HOP-92 NSCLC = test system: HOP-92 NSCLC
# NCI-H522 lung = test system: NCI-H522 lung
# SF-295 CNS = test system: SF-295 CNS
# SK-MEL-2 melanoma = test system: SK-MEL-2 melanoma
# SK-MEL-28 melanoma = test system: SK-MEL-28 melanoma
# SNB-75 CNS = test system: SNB-75 CNS
# U251 CNS = test system: U251 CNS
# MDA-MB-435 = test system: MDA-MB-435
Structure (SMILES),TGI (CCRF-CEM leukemia),TGI (COLO 205 colon),TGI (HOP-92 NSCLC),TGI (NCI-H522 lung),TGI (SF-295 CNS),TGI (SK-MEL-2 melanoma),TGI (SK-MEL-28 melanoma),TGI (SNB-75 CNS),TGI (U251 CNS),TGI (MDA-MB-435),GI50 (COLO 205 colon),GI50 (HOP-92 NSCLC),GI50 (MDA-MB-435),GI50 (NCI-H522 lung),GI50 (SF-295 CNS),GI50 (SK-MEL-2 melanoma),GI50 (SK-MEL-28 melanoma),GI50 (SNB-75 CNS),GI50 (U251 CNS)
O=C1c2ccccc2C(=O)c2[nH]c(Cc3ccc(F)cc3)nc21,> 100 µM,41 µM,74.6 µM,34.3 µM,31.2 µM,29 µM,35 µM,38.3 µM,47 µM,–,–,–,–,–,–,–,–,–,–
O=C1NCCS(=O)(=O)N2CCC[C@@H]12,> 100 µM,> 100 µM,> 100 µM,> 100 µM,> 100 µM,–,> 100 µM,> 100 µM,> 100 µM,–,–,–,–,–,–,–,–,–,–
Cn1c(O)c(C=Nc2ccccc2Cl)c(=O)n(C)c1=O,49 µM,> 100 µM,> 100 µM,> 100 µM,80.5 µM,41.1 µM,–,> 100 µM,> 100 µM,> 100 µM,–,–,–,–,–,–,–,–,–
O=c1ccc2nc(-c3ccccn3)nn(-c3ccccc3)c-2c1,–,5.12 µM,2.42 µM,3.09 µM,27.4 µM,8.68 µM,3.24 µM,23.5 µM,14.2 µM,5.75 µM,2.2 µM,1.15 µM,2.29 µM,1.49 µM,13.9 µM,2.96 µM,1.69 µM,11.4 µM,3.7 µM
O=C(CSc1nc2ccccc2c(=O)n1-c1ccccc1)N=Nc1c(O)[nH]c2ccc(F)cc12,5.04 µM,5.73 µM,4.17 µM,–,–,3.59 µM,4.54 µM,–,> 100 µM,> 100 µM,–,–,–,–,–,–,–,–,–
CCN1CCC(O)(/C=C/c2ccc(OC)cc2)C(C(=O)/C=C/c2ccc(OC)cc2)C1 (stereo not drawn),5.76 µM,20.6 µM,21.3 µM,26.1 µM,29.2 µM,–,24.4 µM,–,19.7 µM,19 µM,–,–,–,–,–,–,–,–,–
CCOC(=O)N1CCC(=C2c3ccc(Cl)cc3CCc3cccnc32)CC1,> 100 µM,21.6 µM,24.2 µM,–,–,27.4 µM,20.3 µM,–,–,24.9 µM,–,–,–,–,–,–,–,–,–
Cc1ccc(-n2cc([Si](C)(C)C)nn2)s1,–,> 100 µM,> 100 µM,> 100 µM,> 100 µM,> 100 µM,> 100 µM,–,> 100 µM,> 100 µM,–,–,–,–,–,–,–,–,–
C=C1CN(C2=NCCO2)C1,> 100 µM,> 100 µM,> 100 µM,–,> 100 µM,> 100 µM,> 100 µM,> 100 µM,–,> 100 µM,–,–,–,–,–,–,–,–,–
CCOc1ccc2c(c1)c(=O)c1c(NCCN(CC)CC)ccc3nnn2c31,25.7 µM,> 54 µM,> 100 µM,27.8 µM,> 56.4 µM,> 100 µM,> 55 µM,–,> 58.2 µM,32.5 µM,–,–,–,–,–,–,–,–,–
CN(C)CCCNCc1cccc2ccccc12,> 100 µM,> 100 µM,> 100 µM,–,> 100 µM,> 100 µM,> 100 µM,> 100 µM,> 100 µM,> 100 µM,–,–,–,–,–,–,–,–,–
CC1=NN(c2nc(N)nc(CF)n2)C(C)(C)C1,> 100 µM,> 100 µM,> 100 µM,–,> 100 µM,> 100 µM,> 100 µM,> 100 µM,> 100 µM,> 100 µM,–,–,–,–,–,–,–,–,–

# From PubChem BioAssay (NCI)
